Data taken from patent publication US20150004100A1, “HETEROCYCLIC COMPOUNDS AS IMAGING PROBES OF TAU PATHOLOGY” (GE HEALTHCARE LIMITED, priority 2011, published 2015).
“Also recorded” adds a separate entry of the source.

Tests used:
Aβ+ plaques [1] = assay: Tissue binding assay (fluorescence), plaques in human AD tissue sections; parameters: key to Plaques (staining): −: No staining; +: weak staining; ++: moderate staining; +++: intense staining; details: for Plaques (staining): Table 2, 100 μM, human AD tissue; for Binding to plaques (in words): high test concentration, AD tissue
Procedure: (§1) Human brain tissue samples from the entorhinal cortex of patients with Alzheimer's disease (AD) and healthy controls were obtained from Tissue Solutions (Tissue Solutions Ltd, Glasgow, UK). Tissue samples were collected after informed written consent, and specimens were dissected at the tissue bank and snap-frozen for cryopreservation at a time interval of between 3 and 18 h after death. The frozen tissue was embedded in TissueTek® (VWR) and sectioned using a Microm HM560 cryostat (Thermo Scientific). Serial 12 μm sections were mounted onto SuperFrost®+ glass slides (VWR) and stored a −70° C.
(§2) The binding of compounds to tau+NFTs and Aβ+ plaques in human AD tissue were evaluated based on fluorescence.
(§3) Briefly, tissue sections were defrosted and fixed in ice-cold 70% ethanol. All tissue sections were rinsed with PBS after fixation and between all subsequent incubation steps. To quench autofluorescence, tissue sections were incubated first with 0.25% KMnO4 (Sigma-Aldrich) in PBS for 12 min, and then with 0.1% […]/0.1% oxalic acid (both reagents from Sigma-Aldrich) in PBS for 1 min. The tissue sections were blocked with 2% BSA in PBS for 10 min, and then incubated with the test compounds at 100 μM concentration for 1 h at RT. […] Finally the tissue sections were rinsed in PBS, and mounted in SlowFade® mounting media (Invitrogen). Images of labelled tissue sections were captured using a Nikon digital camera connected to a Leica microscope and using the NIS Elements D software (Nikon). Images were further processed with the Photoshop® software (Adobe).

tau+ NFTs [2] = assay: Tissue binding assay (fluorescence), NFTs in human AD tissue sections; parameters: key to NFTs (staining): −: No staining; +: weak staining; ++: moderate staining; +++: intense staining; details: for NFTs (staining): Table 2, human AD tissue
[3] = literature reports; cited from earlier work
human liver microsomes = assay: Liver microsome stability assay, human; assay type: in vitro ADME; details: 1 μM, 37° C., parent compound remaining, criterion >50%
Procedure: (§4) The liver microsome stability assay provides an estimate of compound stability and rate of metabolism in vivo. The desirable criterion for this assay is >50% parent compound after 30 min.
(§5) A 1 μM compound solution was incubated with rat or human liver microsomes (20 mg/ml) at 37° C. and the amount of parent compound remaining following the incubation was determined after 5 and 30 min of incubation using LC-MS.

Aβ+ plaques [4] = assay: Tissue binding assay (fluorescence), plaques in human AD tissue sections; parameters: key to Plaques (staining): −: No staining; +: weak staining; ++: moderate staining; +++: intense staining; details: for Plaques (staining): Table 2, human AD tissue
tau+ NFTs [5] = assay: Tissue binding assay (fluorescence), NFTs in human AD tissue sections; parameters: key to NFTs (staining): −: No staining; +: weak staining; ++: moderate staining; +++: intense staining; details: for NFTs (staining): Table 2, 100 μM, human AD tissue; for Binding to NFTs (in words): high test concentration, AD tissue
Procedure: as §1, §2, §3

[6] = PAMPA (parallel artificial membrane permeability assay); assay type: in vitro ADME; details: 10 μM, 5 h at RT; criterion >−6
Procedure: The PAMPA assay is used to determine how well a compound crosses a cell membrane by measuring its passage through a phosphotidyl choline barrier. A permeability coefficient >−6 indicates high permeability across lipid membranes and is indicative of a compounds ability to cross the blood brain barrier.
A 10 μM solution was incubated on a PDVF membrane coated with a 2% phoshotidyl choline solution for 5 h at RT. Membrane penetration was measured using LC-MS.

[7] = Protein binding assay, human plasma (rapid equilibrium dialysis); assay type: in vitro ADME; details: % bound, criterion <99%
Procedure: (§6) The protein binding assays provide an estimate of free (unbound) fraction of the compound in the blood or brain in vivo. […] The desirable criterion for this assay is <99% of test compound bound.
(§7) Test compounds were first dissolved in DMSO to a concentration of 50 μM. This was followed by incubation in samples of human plasma and rat brain homogenates (final test concentration 1 μM). Binding of compounds to proteins was determined in the samples by rapid equilibrium dialysis after 5 and 30 min of incubation.

[8] = Protein binding assay, rat brain homogenates (rapid equilibrium dialysis); assay type: in vitro ADME; details: rat brain homogenate, % bound, criterion <99%
Procedure: as §6, §7

rat liver microsomes = assay: Liver microsome stability assay, rat; assay type: in vitro ADME; details: 1 μM, 37° C., parent compound remaining, criterion >50%
Procedure: as §4, §5

[9] = system: tau aggregates over Aβ1-42 amyloid; details: in vitro, Kudo et al. 2005; cited from earlier work
[10] = In vivo cold bio-distribution in rat (brain uptake, LC-MS)
Procedure: All animal studies were in compliance with local rules and regulations. Test compounds were administered by intravenous (i.v) injection through the tail vein of naïve male Wistar rats (50 μg test compound/rat). The animals were sacrificed by dislocation of the neck at 2, 10, 30, 60 min post-injection (p.i). The brain and plasma were collected from each animal. The concentration of test compound was measured in the plasma and brain homogenates using LS-MS, and calculated as % compound/g (% ID/g).

NFTs and plaques = details: literature reports; cited from earlier work
[11] = lower test concentrations, AD tissue

Row | Plaques (staining) (Aβ+ plaques [1]) | NFTs (staining) (tau+ NFTs [2]; 1 μM) | NFTs (staining) (tau+ NFTs [2]; 10 μM) | Liver stability Human (% PCP) 5 min (human liver microsomes) [% PCP] | Liver stability Human (% PCP) 30 min (human liver microsomes) [% PCP] | Plaques (staining) (Aβ+ plaques [4]; 1 μM) | Plaques (staining) (Aβ+ plaques [4]; 10 μM) | NFTs (staining) (tau+ NFTs [5]) | PAMPA Log Pe [6] | fraction unbound at 1 μM [7] | fraction unbound at 1 μM [8] | Liver stability Rat (% PCP) 5 min (rat liver microsomes) [% PCP] | Liver stability Rat (% PCP) 30 min (rat liver microsomes) [% PCP] | SMILES | Reported brain uptake in vivo (in words) [3] | Selectivity for tau aggregates over Aβ1-42 amyloid [9] | Binding to plaques (in words) (Aβ+ plaques [1]) | Binding to NFTs (in words) (tau+ NFTs [5]) | Reported binding to NFTs / plaques (in words) (NFTs and plaques) | further results
1 | + | + | ++ | 98.9 | 68.29 | − | − | +++ | −5.24 | 0.0098 | 0.0906 | 97.06 | 70.19 | CC(C)NC(=O)c1nn(-c2ccc(Cl)cc2)c(=O)c2c(N)scc12 [ATPZ, reference compound] | high brain uptake in vivo |  |  |  |  | 
2 |  |  |  |  |  |  |  |  |  |  |  |  |  | CNc1ccc(-c2ccc3ccccc3n2)cc1 [BF-158] |  | threefold |  |  |  | 
3 |  |  |  |  |  |  |  |  |  |  |  |  |  | Nc1ccc(-c2ccc3ccccc3n2)cc1 [BF-170] |  | threefold |  |  |  | 
4 | ++ | + | ++ | 87.2 | 74.4 | − | + | +++ | −5.02 | 0.0642 | 0.428 | 81.7 | 56.4 | CC(C)NC(=O)c1nn(-c2ccc(OCCF)cc2)c(=O)c2c(N)scc12 [Compound 38] |  |  | binds to both NFTs (A) and plaques (B); also recorded: bind to both NFTs and plaques | binds to both NFTs (A) and plaques (B); also recorded: bind to both NFTs and plaques |  | tissue uptake at 2 min ([10]; male, Wistar, rat, brain, iv, 50 μg/rat, 2 min p.i.): > 0.2 %ID/g; tissue uptake at 10 min ([10]; male, Wistar, rat, brain, iv, 50 μg/rat, 10 min p.i.): 0.081 %ID/g; tissue uptake at 30 min ([10]; male, Wistar, rat, brain, iv, 50 μg/rat, 30 min p.i.): 0.021 %ID/g; tissue uptake at 60 min ([10]; male, Wistar, rat, brain, iv, 50 μg/rat, 60 min p.i.): 0.011 %ID/g; Clearance ratio 2:30 min ([10]; rat brain, 2 min vs 30 min p.i.): 13.3; Brain uptake and clearance (in words) ([10]; rat, from clearance ratio): rapid brain uptake followed by rapid clearance; Brain uptake % ID/g p.i ([10]; rat, i.v., 2 min p.i.): 0.28 % ID/g; Binding preference for NFTs (in words) (tau+ NFTs [2]; [11]): binds preferentially to NFTs; also recorded: bind with a preference for NFTs
5 | +++ | + | ++ |  |  | + | ++ | +++ |  |  |  |  |  | CC(=C(C#N)C#N)c1ccc2cc(N(C)CCF)ccc2c1 [FDDNP, 2-(1-(2-(N-(2-fluoroethy)-N-methylamino)-naphthalene-6-yl)-ethylidende)-malononitrile, reference compound] |  |  | detected to both NFTs and plaques | detected to both NFTs and plaques | binds to both NFTs and plaques | 

Row | SMILES | Plaques (staining) (Aβ+ plaques [1]) | NFTs (staining) (tau+ NFTs [2]; 1 μM) | NFTs (staining) (tau+ NFTs [2]; 10 μM) | Liver stability Human (% PCP) 5 min (human liver microsomes) [% PCP] | Liver stability Human (% PCP) 30 min (human liver microsomes) [% PCP] | Plaques (staining) (Aβ+ plaques [4]; 1 μM) | Plaques (staining) (Aβ+ plaques [4]; 10 μM) | NFTs (staining) (tau+ NFTs [5]) | PAMPA Log Pe [6] | fraction unbound at 1 μM [7] | fraction unbound at 1 μM [8] | Liver stability Rat (% PCP) 5 min (rat liver microsomes) [% PCP] | Liver stability Rat (% PCP) 30 min (rat liver microsomes) [% PCP] | Reported brain uptake in vivo (in words) [3] | Selectivity for tau aggregates over Aβ1-42 amyloid [9] | Binding to plaques (in words) (Aβ+ plaques [1]) | Binding to NFTs (in words) (tau+ NFTs [5]) | Reported binding to NFTs / plaques (in words) (NFTs and plaques) | further results
6 | [11CH3]Nc1ccc(-c2nc3ccc(O)cc3s2)cc1 [PiB, Pittsburgh compound B, reference compound] | +++ | − | + |  |  | ++ | ++ | +++ |  |  |  |  |  | high brain uptake in vivo |  | detected to both NFTs and plaques | detected to both NFTs and plaques | bind with a preference to Aβ+ plaques | Binding to plaques (in words) (Aβ+ plaques [4]; [11]): only bound to plaques
